Measurements as given in article PMC10747430, “^99mTc-Labeled Cyclic Peptide Targeting PD-L1 as a Novel Nuclear Imaging Probe” (Pharmaceutics, 2023).

System: HCT116 cells (PD-L1 positive)
Experiment: Cellular uptake and internalization, HCT116
Type: cell-based, human
Conditions: HCT116, 1 × 10^6 cells/tube, 7.4 kBq, 37 °C, 1 h, n = 3
Protocol: Human colorectal cancer HCT116 (PD-L1 positive: 45.1 nTPM), human lung cancer HCC827 (PD-L1 positive: 27.1 nTPM), and […] C6 glioma cells (PD-L1 negative control) were obtained from ATCC (Atlanta, GA, USA). FBS, RPMI, and cell culture medium were obtained from Bovine and Biology (CDMX, MX). Cells were cultured in RPMI medium (5% CO2; 100 µg/mL penicillin, 15% fetal bovine serum, and 100 µg/mL streptomycin; 37 °C).
Cells diluted in phosphate-buffered saline (PBS) (pH 7.4) (1 × 10^6 cells/tube) received three different treatments: (a) [^99mTc]Tc-iPD-L1 (7.4 kBq) (n = 3), (b) and [^99mTc]Tc-WL12 (7.4 kBq) (n = 3), and (c) ^99mTcO4Na (7.4 kBq) (n = 3). Cells were incubated with each treatment at 37 °C for one hour. After incubation, tubes were measured in a NaI(Tl) detector (NML Inc., Houston, TX, USA) to establish the initial or first activity (100%). The tubes were spun at 500 g for 10 min, rinsed once with PBS, and spun once more. The liquid was removed, and the activity in the button was determined, indicating the percentage of cellular uptake (surface uptake) regarding the initial or first activity. Acetic acid/0.5 M NaCl was added, the tubes were centrifuged, and the activity was measured. The liquid was removed, and activity in button activity represented the percentage of activity internalized by cells relative to uptake activity (internalization fraction of surface uptake). […]

CCCC[C@H]1C(=O)N(C)[C@@H](CCCC)C(=O)N[C@@H](CCCNC(=O)c2ccc(NN)nc2)C(=O)N[C@H](C(=O)NCC(N)=O)CSCC(=O)N[C@@H](Cc2ccc(O)cc2)C(=O)N(C)[C@@H](C)C(=O)N[C@@H](CC(N)=O)C(=O)N2CCC[C@H]2C(=O)N[C@@H](Cc2c[nH]cn2)C(=O)N[C@@H](CC(C)C)C(=O)N2C[C@H](O)C[C@H]2C(=O)N[C@@H](Cc2c[nH]c3ccccc23)C(=O)N[C@@H](CO)C(=O)N[C@@H](Cc2cn(C)c3ccccc23)C(=O)N1C [[^99mTc]Tc-WL12, metal not drawn]
uptake and internalization compared to C6 cells (PD-L1 negative): significantly higher
